In general, IC50 refers to the concentration that gives 50% inhibition. What is called Ki is a dissociation constant, usually derived from enzyme kinetics or from competition with a known ligand.

Assay [1] has as its target Beta-1 adrenergic receptor (Homo sapiens, UniProt P08588). In words: DRUGMATRIX: Adrenergic beta1 radioligand binding (ligand: [125I] Cyanopindolol). Conditions: Not Active = under 50% inhibition at 10 µM. In kind it is cell membranes, CHO-K1, Membrane.
In assay [2] the target is C-C chemokine receptor type 5 (Homo sapiens, UniProt P51681). In kind it is cell membranes, Membrane. Conditions: hek293. Note: in other assays of this panel Not Active means under 50% inhibition at 10 µM.
Sequence of C-C chemokine receptor type 5 (P51681 whole entry): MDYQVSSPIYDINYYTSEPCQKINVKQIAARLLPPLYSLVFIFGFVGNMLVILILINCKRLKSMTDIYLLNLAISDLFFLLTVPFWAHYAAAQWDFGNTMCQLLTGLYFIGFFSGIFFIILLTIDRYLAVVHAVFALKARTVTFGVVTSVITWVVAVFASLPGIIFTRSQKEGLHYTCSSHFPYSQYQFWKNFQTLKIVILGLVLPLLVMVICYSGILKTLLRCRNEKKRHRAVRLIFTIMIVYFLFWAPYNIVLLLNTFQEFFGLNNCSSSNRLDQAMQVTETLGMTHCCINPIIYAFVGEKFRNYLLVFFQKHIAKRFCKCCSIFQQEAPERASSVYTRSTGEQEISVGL
In assay [3] the target is C-C chemokine receptor type 2 (Homo sapiens, UniProt P41597). It is filed as cell membranes, Membrane. The note with it: cho-k1. Note: in other assays of this panel Not Active means under 50% inhibition at 10 µM.
Sequence of C-C chemokine receptor type 2 (P41597 whole entry): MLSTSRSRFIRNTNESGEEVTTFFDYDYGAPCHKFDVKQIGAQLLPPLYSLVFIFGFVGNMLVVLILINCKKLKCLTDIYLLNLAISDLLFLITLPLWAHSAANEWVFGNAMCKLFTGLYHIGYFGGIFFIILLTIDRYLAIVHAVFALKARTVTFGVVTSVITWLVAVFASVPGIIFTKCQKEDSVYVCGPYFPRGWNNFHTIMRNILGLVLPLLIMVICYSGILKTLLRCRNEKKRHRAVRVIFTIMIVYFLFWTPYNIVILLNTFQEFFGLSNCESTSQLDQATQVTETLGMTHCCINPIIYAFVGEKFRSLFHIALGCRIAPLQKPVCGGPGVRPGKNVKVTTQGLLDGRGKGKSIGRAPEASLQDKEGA
Assay [4] in a line: DRUGMATRIX: Tumor Necrosis Factor (TNF), Non-Selective radioligand binding (ligand: [125I] TNF-alpha). In kind it is cell membranes, Membrane. Conditions: u-937; Not Active = under 50% inhibition at 10 µM.
Assay [5] addresses Nitric oxide synthase 1 (Rattus norvegicus, UniProt P29476). In kind it is tissue-based, Cerebellum.
Assay [6] can be described thus: DRUGMATRIX: Sodium/nucleoside co-transporter radioligand binding (ligand: nitrobenzylthioinosine). In kind it is cell membranes, Cavia porcellus, Dunkin-Hartley, Cerebral cortex, Membrane. The note with it: Not Active = under 50% inhibition at 10 µM.
Assay [7] has as its target Platelet-activating factor receptor (Homo sapiens, UniProt P25105). It is filed as tissue-based. Note: in other assays of this panel Not Active means under 50% inhibition at 10 µM.
Assay [8] has as its target T1, Leukotriene C4 synthase (Cavia porcellus, UniProt A6XA80).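 Note: enzyme inhibition assay of leukotriene C4 synthase, using LTA4 as the substrate; in other assays of this panel Not Active means under 50% inhibition at 10 µM.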
T1 sequence (A6XA80 whole entry): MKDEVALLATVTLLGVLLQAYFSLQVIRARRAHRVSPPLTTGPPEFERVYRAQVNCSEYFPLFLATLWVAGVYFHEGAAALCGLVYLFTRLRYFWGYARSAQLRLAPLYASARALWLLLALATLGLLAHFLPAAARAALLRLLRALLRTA
In kind it is tissue-based, Lung.

Assay [9] has as its target Delta-type opioid receptor (Homo sapiens, UniProt P41143). It is filed as cell membranes, Membrane. The note with it: hek293. Note: in other assays of this panel Not Active means under 50% inhibition at 10 µM.

Sequence of Nitric oxide synthase 1 (P29476 whole entry): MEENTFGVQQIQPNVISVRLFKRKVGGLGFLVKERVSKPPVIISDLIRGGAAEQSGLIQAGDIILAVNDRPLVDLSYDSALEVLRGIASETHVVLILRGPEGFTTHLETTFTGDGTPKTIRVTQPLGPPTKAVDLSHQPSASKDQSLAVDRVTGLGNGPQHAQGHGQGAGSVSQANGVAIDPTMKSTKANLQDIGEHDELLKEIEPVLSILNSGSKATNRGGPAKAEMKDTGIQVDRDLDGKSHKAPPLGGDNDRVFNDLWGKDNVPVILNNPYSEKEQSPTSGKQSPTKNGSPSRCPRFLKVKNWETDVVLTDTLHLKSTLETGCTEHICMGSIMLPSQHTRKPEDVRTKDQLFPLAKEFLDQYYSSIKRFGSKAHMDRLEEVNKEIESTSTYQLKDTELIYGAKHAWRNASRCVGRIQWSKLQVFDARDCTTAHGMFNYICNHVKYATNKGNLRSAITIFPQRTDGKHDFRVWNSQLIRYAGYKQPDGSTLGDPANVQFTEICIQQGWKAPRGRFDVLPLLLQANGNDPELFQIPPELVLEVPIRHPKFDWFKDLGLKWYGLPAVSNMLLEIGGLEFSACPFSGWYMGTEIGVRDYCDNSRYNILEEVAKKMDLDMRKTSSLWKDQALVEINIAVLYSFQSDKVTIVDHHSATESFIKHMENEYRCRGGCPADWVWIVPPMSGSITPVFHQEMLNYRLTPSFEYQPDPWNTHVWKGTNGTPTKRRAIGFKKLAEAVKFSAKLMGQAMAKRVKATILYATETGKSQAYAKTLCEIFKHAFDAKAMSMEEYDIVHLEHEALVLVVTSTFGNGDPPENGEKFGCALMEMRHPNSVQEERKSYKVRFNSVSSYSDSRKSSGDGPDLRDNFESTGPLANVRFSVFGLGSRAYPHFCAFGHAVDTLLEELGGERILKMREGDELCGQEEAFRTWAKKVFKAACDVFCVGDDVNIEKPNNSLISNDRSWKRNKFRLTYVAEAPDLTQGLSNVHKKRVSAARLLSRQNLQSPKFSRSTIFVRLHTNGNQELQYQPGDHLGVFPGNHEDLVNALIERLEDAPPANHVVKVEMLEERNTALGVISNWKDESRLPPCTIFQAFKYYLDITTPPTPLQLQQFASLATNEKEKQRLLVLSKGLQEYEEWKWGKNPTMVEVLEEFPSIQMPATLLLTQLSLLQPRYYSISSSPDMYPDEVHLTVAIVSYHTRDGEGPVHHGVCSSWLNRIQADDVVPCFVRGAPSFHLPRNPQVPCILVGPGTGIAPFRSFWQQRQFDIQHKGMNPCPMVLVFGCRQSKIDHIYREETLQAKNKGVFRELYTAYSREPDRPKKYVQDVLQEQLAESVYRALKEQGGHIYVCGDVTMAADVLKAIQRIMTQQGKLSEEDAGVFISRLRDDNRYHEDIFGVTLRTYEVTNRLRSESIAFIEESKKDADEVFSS
Sequence of Platelet-activating factor receptor (P25105 whole entry): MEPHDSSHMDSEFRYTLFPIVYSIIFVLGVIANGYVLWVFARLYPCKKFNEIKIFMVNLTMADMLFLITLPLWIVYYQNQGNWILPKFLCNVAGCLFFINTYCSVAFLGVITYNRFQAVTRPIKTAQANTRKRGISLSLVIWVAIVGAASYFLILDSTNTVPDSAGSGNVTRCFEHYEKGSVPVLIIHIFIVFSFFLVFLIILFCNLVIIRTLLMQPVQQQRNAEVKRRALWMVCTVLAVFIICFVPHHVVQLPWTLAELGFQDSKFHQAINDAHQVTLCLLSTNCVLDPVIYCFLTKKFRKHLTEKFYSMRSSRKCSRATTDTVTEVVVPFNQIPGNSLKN
Sequence of Delta-type opioid receptor (P41143 whole entry): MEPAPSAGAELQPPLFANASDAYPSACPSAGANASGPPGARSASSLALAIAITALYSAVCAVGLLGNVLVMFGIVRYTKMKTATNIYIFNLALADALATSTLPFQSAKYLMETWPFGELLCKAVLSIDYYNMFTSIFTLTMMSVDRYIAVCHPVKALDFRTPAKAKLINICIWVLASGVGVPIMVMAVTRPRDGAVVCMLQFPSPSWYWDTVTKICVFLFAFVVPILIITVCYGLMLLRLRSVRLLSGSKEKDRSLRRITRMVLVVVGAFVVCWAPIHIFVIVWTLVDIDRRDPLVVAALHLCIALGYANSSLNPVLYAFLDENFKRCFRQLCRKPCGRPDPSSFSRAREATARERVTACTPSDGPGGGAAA
Sequence of Beta-1 adrenergic receptor (P08588 whole entry): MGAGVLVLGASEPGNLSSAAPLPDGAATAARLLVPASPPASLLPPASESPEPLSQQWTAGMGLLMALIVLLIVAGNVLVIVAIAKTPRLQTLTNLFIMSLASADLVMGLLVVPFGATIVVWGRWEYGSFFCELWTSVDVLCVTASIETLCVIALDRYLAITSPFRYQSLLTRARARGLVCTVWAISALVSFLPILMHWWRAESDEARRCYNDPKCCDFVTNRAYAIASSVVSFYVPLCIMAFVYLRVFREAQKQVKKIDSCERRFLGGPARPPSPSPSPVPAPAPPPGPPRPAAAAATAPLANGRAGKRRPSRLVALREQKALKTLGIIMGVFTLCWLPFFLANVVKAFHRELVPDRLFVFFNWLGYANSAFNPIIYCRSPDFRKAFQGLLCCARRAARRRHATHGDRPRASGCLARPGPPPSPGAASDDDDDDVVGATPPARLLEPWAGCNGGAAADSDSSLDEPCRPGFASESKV

Take `CC(C(=O)O)c1ccc2oc(-c3ccc(Cl)cc3)nc2c1` (configuration not stated) [BENOXAPROFEN]: the IC50 result in assay [1] (cho-k1), in assay [2], in assay [3], in assay [4], in assay [5] and in assay [6] was “Not Active” each time. The IC50 entry in assay [7], in assay [8] and in assay [9] was “Not Active” throughout. In addition, the Ki entry in [4] and in assay [6] was “Not Active” throughout.

As for `COc1ccc2cc3[n+](cc2c1OC)CCc1cc2c(cc1-3)OCO2.[Cl-]` [BERBERINE CHLORIDE], the half-inhibitory concentration (IC50) result in [1] (cho-k1), in assay [2], in [3], in assay [4], in assay [5] and in [6] was “Not Active” throughout. Moreover, the IC50 result in assay [7], in assay [8] and in assay [9] was “Not Active” in each case. Also, the Ki entry in [4] and in [6] was “Not Active” each time.

In the case of `O=C(O)CCNC(=O)c1ccccc1` [BETAMIPRON], the IC50 entry in assay [1] (cho-k1), in assay [2], in assay [3], in [4], in assay [5] and in assay [6] was “Not Active” in each case. Besides, the IC50 entry in assay [7], in [8] and in assay [9] was “Not Active” throughout. Besides, the Ki entry in [4] and in assay [6] was “Not Active” throughout.

With `CC(=O)Oc1ccc(C(c2ccc(OC(C)=O)cc2)c2ccccn2)cc1` [BISACODYL], the 50% inhibitory concentration (IC50) entry in assay [1] (cho-k1), in [2], in [3], in assay [4], in [5] and in assay [6] was “Not Active” throughout. Besides, the IC50 entry in assay [7], in [8] and in [9] was “Not Active” in each case. The Ki entry in assay [4] and in [6] was “Not Active” in each case.

Consider `Cc1cc2c(OCC(CNC(C)(C)C)OC(=O)c3ccccc3)cccc2[nH]1` (configuration not stated) [BOPINDOLOL], for which the IC50 in assay [1] (read-out: IC50) was 47 nM; in assay [2], “Not Active”; in [3], “Not Active”; in assay [4], “Not Active”; in assay [5] it was “Not Active”; in assay [6] it was “Not Active”. Also, the IC50 entry in assay [7], in assay [8] and in [9] was “Not Active” throughout. Also, the Ki is 27 nM in assay [1] (read-out: Ki), “Not Active” in assay [4] and “Not Active” in assay [6].

In the case of `Brc1c(NC2=NCCN2)ccc2nccnc12` [BRIMONIDINE], the IC50 result in assay [1] (cho-k1), in assay [2], in assay [3], in [4], in [5] and in [6] was “Not Active” throughout. Also, the IC50 result in assay [7], in assay [8] and in assay [9] was “Not Active” throughout. Moreover, the inhibition constant (Ki) entry in assay [4] and in assay [6] was “Not Active” throughout.

In the case of `CN(C)[C@@H]1C(O)=C(C(N)=O)C(=O)[C@@]2(O)C(O)=C3C(=O)c4c(O)ccc(Cl)c4[C@@](C)(O)[C@H]3C[C@@H]12` [CHLORTETRACYCLINE], the IC50 entry in assay [1] (cho-k1), in assay [2], in [3], in assay [4], in assay [5] and in assay [6] was “Not Active” in each case. Further, the IC50 result in assay [7], in assay [8] and in [9] was “Not Active” each time. In addition, the inhibition constant Ki result in assay [4] and in assay [6] was “Not Active” each time.

As for `CN/C(=N\CCSCc1nc[nH]c1C)NC#N` [CIMETIDINE], the half-inhibitory concentration (IC50) result in assay [1] (cho-k1), in assay [2], in assay [3], in [4], in [5] and in [6] was “Not Active” each time. Also, the IC50 result in assay [7], in [8] and in assay [9] was “Not Active” in each case. Also, the Ki entry in assay [4] and in [6] was “Not Active” in each case.

Regarding `COc1cc(N)c(Cl)cc1C(=O)NC1CCN(CCCOc2ccc(F)cc2)CC1OC` (configuration not stated) [CISAPRIDE], the IC50 entry in assay [1] (cho-k1), in assay [2], in assay [3], in [4], in assay [5] and in assay [6] was “Not Active” each time. For the same compound, the IC50 result in assay [7], in [8] and in assay [9] was “Not Active” in each case. Also, the Ki result in assay [4] and in assay [6] was “Not Active” each time.

Turning to `CCC(=O)O[C@]1(C(=O)CCl)[C@@H](C)C[C@H]2[C@@H]3CCC4=CC(=O)C=C[C@]4(C)[C@@]3(F)[C@@H](O)C[C@@]21C` [CLOBETASOL PROPIONATE], the IC50 entry in [1] (cho-k1), in [2], in [3], in [4], in assay [5] and in assay [6] was “Not Active” throughout. The concentration for half-maximal inhibition (IC50) entry in assay [7], in assay [8] and in assay [9] was “Not Active” throughout. The Ki result in assay [4] and in assay [6] was “Not Active” in each case.

As for `O=C1CN=C(c2ccccc2Cl)c2cc([N+](=O)[O-])ccc2N1` [CLONAZEPAM], the half-maximal inhibitory concentration (IC50) result in assay [1] (cho-k1), in [2], in assay [3], in assay [4], in [5] and in assay [6] was “Not Active” throughout. Also, the IC50 entry in assay [7], in assay [8] and in assay [9] was “Not Active” in each case. For the same compound, the Ki result in assay [4] and in assay [6] was “Not Active” each time.

Consider `Nc1ccn([C@@H]2O[C@H](CO)[C@@H](O)[C@@H]2O)c(=O)n1` [CYTARABINE], for which the 50% inhibitory concentration (IC50) result in [1] (cho-k1), in [2], in [3], in assay [4], in [5] and in assay [6] was “Not Active” each time. Also, the IC50 entry in assay [7], in assay [8] and in [9] was “Not Active” each time. Further, the Ki entry in assay [4] and in assay [6] was “Not Active” throughout.

`C[C@@H]1C[C@H]2[C@@H]3CCC4=CC(=O)C=C[C@]4(C)[C@@]3(F)[C@@H](O)C[C@]2(C)[C@H]1C(=O)CO` [DESOXIMETASONE]: the IC50 result in assay [1] (cho-k1), in assay [2], in assay [3], in [4], in [5] and in [6] was “Not Active” in each case. Further, the IC50 result in [7], in assay [8] and in [9] was “Not Active” throughout. The inhibition constant Ki entry in [4] and in assay [6] was “Not Active” in each case.

Regarding `C[C@@H]1C[C@H]2[C@@H]3CCC4=CC(=O)C=C[C@]4(C)[C@@]3(F)[C@@H](O)C[C@]2(C)[C@@]1(O)C(=O)CO` [DEXAMETHASONE], the IC50 result in assay [1] (cho-k1), in [2], in [3], in assay [4], in [5] and in assay [6] was “Not Active” throughout. Further, the 50% inhibitory concentration (IC50) entry in assay [7], in assay [8] and in assay [9] was “Not Active” throughout. Also, the Ki entry in assay [4] and in assay [6] was “Not Active” in each case.

Regarding `CN(C)CC[C@@H](c1ccc(Cl)cc1)c1ccccn1` [DEXCHLORPHENIRAMINE], the IC50 entry in [1] (cho-k1), in assay [2], in assay [3], in assay [4], in assay [5] and in [6] was “Not Active” in each case. Moreover, the IC50 result in assay [7], in assay [8] and in assay [9] was “Not Active” each time. Besides, the Ki entry in assay [4] and in assay [6] was “Not Active” in each case.

In the case of `C[C@@H]1CC[C@@]2(OC1)O[C@H]1[C@@H](O)[C@H]3[C@@H]4CC[C@H]5C[C@@H](O[C@@H]6O[C@H](CO)[C@H](O[C@@H]7O[C@H](CO)C(O)[C@H](O[C@@H]8OC[C@@H](O)[C@H](O)[C@H]8O)[C@H]7O[C@@H]7O[C@H](CO)[C@H](O)[C@H](O[C@@H]8O[C@H](CO)[C@@H](O)[C@H](O)[C@H]8O)[C@H]7O)[C@H](O)[C@H]6O)[C@H](O)C[C@]5(C)[C@H]4CC[C@]3(C)[C@H]1[C@@H]2C` (some centres not stated) [DIGITONIN], the IC50 entry in [1] (cho-k1), in assay [2], in [3], in [4], in assay [5] and in assay [6] was “Not Active” throughout. The IC50 result in assay [7], in [8] and in assay [9] was “Not Active” each time. The Ki result in [4] and in assay [6] was “Not Active” each time.
